≈ marks a conversion by molar mass, not a printed value.
How the values were obtained:
recombinant human PKM2 = recombinant human PKM2 (Homo sapiens (Human), UniProt P14618); experiment: Human PKM2 activation assay (Kinase-Glo Plus luminescence); assay type: biochemical; settings: for EC50: activation of recombinant human PKM2, 4-parameter logistic fit, read-out: hPKM2 EC50; for Emax: read-out: hPKM2 Emax (%)
Experimental: Compound activation of recombinant human PKM2 pyruvate kinase activity was determined by biochemical assay. N-terminal His-tagged hPKM2 was sourced from R&D Systems and its substrates phosphoenolpyruvate (PEP) and ADP from Sigma-Aldrich and 2BScientific Ltd, respectively. The Kinase-Glo® Plus luminescence assay was from Promega. All other reagents were from Sigma-Aldrich. Test Compounds were prepared as 10 mM DMSO stocks and dilution series prepared in DMSO for direct dilution into Assay Buffer comprising 50 mM imidazole, 50 mM KCl, 7 mM MgCl2, 0.01% Tween20, 0.05% BSA (pH 7.2).
Human PKM2 was diluted into Assay Buffer comprising 50 mM imidazole, 50 mM KCl, 7 mM MgCl2, 0.01% Tween20, 0.05% BSA (pH 7.2) to a final concentration of 5 pM. Enzyme-Assay Buffer mix was dispensed into a 384-well shallow-well white-walled plate (PerkinElmer) and Test Compounds added by acoustic dispense (Echo®, Labcyte Inc.).
After 60 minutes' incubation on an orbital shaker (300 rpm, 26° C.), enzyme activity was quantified by the luminescent detection of generated ATP. Kinase-Glo® Plus reagent was added to each well and the plates incubated for a further 15 minutes on an orbital shaker in the dark (300 rpm, 26° C.) before luminescence measurement on a plate reader (PHERAstar® FSX, BMG Labtech).
EC50 and Emax values were determined from 4-parameter logistic fits of compound concentration-response curves.

[1] = Kinetic aqueous solubility; settings: phosphate buffered saline (PBS) pH 7.4, pH 7.4, aqueous buffer, kinetic from dmso stock, Kinetic solubility (Ksol), (μg/ml), PBS pH 7.4, 200 μM (2% DMSO), RT
Experimental: Phosphate buffered saline (PBS) pH 7.4 was prepared using PBS tablets as per the manufacturer's instructions. Compounds and marker stocks are prepared at 10 mM in DMSO.
Compounds were incubated at 200 μM (2% DMSO) in Millipore—MSS LB PC 10 or Porvair—ref: 36004 plates in the presence of the prepared PBS pH 7.4 solution for 1.5 h, at RT, with gentle shaking. […] The samples were then analysed in a 96 well UV Star analysis plate on a plate reader from 220 nm to 500 nm at 10 nm increments.
The concentration of the samples was calculated against the standard curves.

Sequence of recombinant human PKM2 (P14618 whole entry): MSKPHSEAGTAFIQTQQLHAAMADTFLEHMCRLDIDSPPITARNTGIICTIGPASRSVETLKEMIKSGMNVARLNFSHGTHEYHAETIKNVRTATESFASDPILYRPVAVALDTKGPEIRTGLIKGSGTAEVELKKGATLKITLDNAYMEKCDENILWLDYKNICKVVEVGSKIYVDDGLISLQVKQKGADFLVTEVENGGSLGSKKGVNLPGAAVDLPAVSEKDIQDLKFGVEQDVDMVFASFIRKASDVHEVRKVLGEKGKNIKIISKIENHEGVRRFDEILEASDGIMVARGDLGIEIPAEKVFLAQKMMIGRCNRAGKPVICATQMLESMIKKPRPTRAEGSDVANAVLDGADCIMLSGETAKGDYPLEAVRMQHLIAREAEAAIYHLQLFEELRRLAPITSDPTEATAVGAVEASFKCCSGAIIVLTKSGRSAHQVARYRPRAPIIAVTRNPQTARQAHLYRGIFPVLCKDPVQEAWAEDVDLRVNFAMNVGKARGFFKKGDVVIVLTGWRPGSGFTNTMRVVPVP

Cn1c2c(c3cnn(Cc4n[nH]c5ccccc45)c(=O)c31)CCN(S(C)(=O)=O)C2 [Example 20, 3-((1H-indazol-3-yl)methyl)-5-methyl-7-(methylsulfonyl)-3,5,6,7,8,9-hexahydro-4H-pyrido[4′,3′:4,5]pyrrolo[2,3-d]pyridazin-4-one]
EC50 (recombinant human PKM2): 272 nM
Emax (recombinant human PKM2): 111%
solubility kinetic at 1.5 h [1]: 8.43 µg/mL (≈ 20.4 µM)

Cn1c2c(c3cnn(Cc4cccc5[nH]ncc45)c(=O)c31)CCN(S(C)(=O)=O)C2 [Example 32, 3-((1H-indazol-4-yl)methyl)-5-methyl-7-(methylsulfonyl)-3,5,6,7,8,9-hexahydro-4H-pyrido[4′,3′:4,5]pyrrolo[2,3-d]pyridazin-4-one]
EC50 (recombinant human PKM2): 365 nM
Emax (recombinant human PKM2): 94.6%
solubility kinetic at 1.5 h [1]: 16.2 µg/mL (≈ 39.2 µM)

COc1ccc(Cn2ncc3c4c(n(C)c3c2=O)CN(S(=O)(=O)c2ccccc2)CC4)c(F)c1 [Example 21, 3-(2-fluoro-4-methoxybenzyl)-5-methyl-7-(phenylsulfonyl)-3,5,6,7,8,9-hexahydro-4H-pyrido[4′,3′:4,5]pyrrolo[2,3-d]pyridazin-4-one]
EC50 (recombinant human PKM2): 986 nM
Emax (recombinant human PKM2): 71.4%
solubility kinetic at 1.5 h [1]: 1.04 µg/mL (≈ 2.16 µM)

COc1ccc(S(=O)(=O)N2CCc3c(n(C)c4c(=O)n(Cc5c[nH]c6cnccc56)ncc34)C2)cc1 [Example 35, 3-((1H-pyrrolo[2,3-c]pyridin-3-yl)methyl)-7-((4-methoxyphenyl)sulfonyl)-5-methyl-3,5,6,7,8,9-hexahydro-4H-pyrido[4′,3′:4,5]pyrrolo[2,3-d]pyridazin-4-one]
EC50 (recombinant human PKM2): 569 nM
Emax (recombinant human PKM2): 78.1%

Cn1c2c(c3cnn(Cc4c[nH]c5ccccc45)c(=O)c31)CCN(S(C)(=O)=O)C2 [Example 15, 3-((1H-indol-3-yl)methyl)-5-methyl-7-(methylsulfonyl)-3,5,6,7,8,9-hexahydro-4H-pyrido[4′,3′:4,5]pyrrolo[2,3-d]pyridazin-4-one]
EC50 (recombinant human PKM2): 99 nM
Emax (recombinant human PKM2): 99.9%
solubility kinetic at 1.5 h [1]: 2.49 µg/mL (≈ 6.05 µM)

COc1ccc(S(=O)(=O)N2CCc3c(n(C)c4c(=O)n(Cc5ccc6c(c5)CCO6)ncc34)C2)cc1 [Example 23, 3-((2,3-dihydrobenzofuran-5-yl)methyl)-7-((4-methoxyphenyl)sulfonyl)-5-methyl-3,5,6,7,8,9-hexahydro-4H-pyrido[4′,3′:4,5]pyrrolo[2,3-d]pyridazin-4-one]
EC50 (recombinant human PKM2): 313 nM
Emax (recombinant human PKM2): 58.3%

Cn1c2c(c3cnn(Cc4csc5ccncc45)c(=O)c31)CCN(S(C)(=O)=O)C2 [Example 34, 5-methyl-7-(methylsulfonyl)-3-(thieno[3,2-c]pyridin-3-ylmethyl)-3,5,6,7,8,9-hexahydro-4H-pyrido[4′,3′:4,5]pyrrolo[2,3-d]pyridazin-4-one]
EC50 (recombinant human PKM2): 440 nM
Emax (recombinant human PKM2): 82.6%
solubility kinetic at 1.5 h [1]: 1.8 µg/mL (≈ 4.19 µM)

Cn1c2c(c3cnn(Cc4ccsc4C(N)=O)c(=O)c31)CCN(S(C)(=O)=O)C2 [Example 14, 3-((5-methyl-7-(methylsulfonyl)-4-oxo-4,5,6,7,8,9-hexahydro-3H-pyrido [4′,3′:4,5]pyrrolo[2,3-d]pyridazin-3-yl)methyl)thiophene-2-carboxamide]
EC50 (recombinant human PKM2): 512 nM
Emax (recombinant human PKM2): 102%
solubility kinetic at 1.5 h [1]: 41.3 µg/mL (≈ 98.1 µM)

Cn1c2c(c3cnn(Cc4ccc5cc[nH]c5n4)c(=O)c31)CCN(S(C)(=O)=O)C2 [Example 25, 3-((1H-pyrrolo[2,3-b]pyridin-6-yl)methyl)-5-methyl-7-(methylsulfonyl)-3,5,6,7,8,9-hexahydro-4H-pyrido[4′,3′:4,5]pyrrolo[2,3-d]pyridazin-4-one]
EC50 (recombinant human PKM2): 342 nM
Emax (recombinant human PKM2): 99.5%
solubility kinetic at 1.5 h [1]: 3.94 µg/mL (≈ 9.55 µM)

Cn1c2c(c3cnn(Cc4c[nH]c5cc(F)ccc45)c(=O)c31)CCN(S(C)(=O)=O)C2 [Example 39, 3-((6-fluoro-1H-indol-3-yl)methyl)-5-methyl-7-(methylsulfonyl)-6,7,8,9-tetrahydro-3H-pyrido[4′,3′:4,5]pyrrolo[2,3-d]pyridazin-4(5H)-one]
EC50 (recombinant human PKM2): 217 nM
Emax (recombinant human PKM2): 92.7%
solubility kinetic at 1.5 h [1]: 1.09 µg/mL (≈ 2.54 µM)

Cn1c2c(c3cnn(Cc4n[nH]cc4C(N)=O)c(=O)c31)CCN(S(C)(=O)=O)C2 [Example 17, 3-((5-methyl-7-(methylsulfonyl)-4-oxo-4,5,6,7,8,9-hexahydro-3H-pyrido [4′,3′:4,5]pyrrolo[2,3-d]pyridazin-3-yl)methyl)-1H-pyrazole-4-carboxamide]
EC50 (recombinant human PKM2): 901 nM
Emax (recombinant human PKM2): 98.8%
solubility kinetic at 1.5 h [1]: 73.1 µg/mL (≈ 180 µM)

Cn1c2c(c3cnn(Cc4cccc(N5CCCC5)n4)c(=O)c31)CCN(S(C)(=O)=O)C2 [Example 19, 5-methyl-7-(methylsulfonyl)-3-((6-(pyrrolidin-1-yl)pyridin-2-yl)methyl)-3,5,6,7,8,9-hexahydro-4H-pyrido[4′,3′:4,5]pyrrolo[2,3-d]pyridazin-4-one]
EC50 (recombinant human PKM2): 869 nM
Emax (recombinant human PKM2): 63.8%
solubility kinetic at 1.5 h [1]: 5.42 µg/mL (≈ 12.2 µM)

Cn1c2c(c3cnn(Cc4c[nH]c5ccc(F)cc45)c(=O)c31)CCN(S(C)(=O)=O)C2 [Example 38, 3-((5-fluoro-1H-indol-3-yl)methyl)-5-methyl-7-(methylsulfonyl)-6,7,8,9-tetrahydro-3H-pyrido[4′,3′:4,5]pyrrolo[2,3-d]pyridazin-4(5H)-one]
EC50 (recombinant human PKM2): 759 nM
Emax (recombinant human PKM2): 93.2%

Cn1c2c(c3cnn(Cc4cccc(S(N)(=O)=O)c4)c(=O)c31)CCN(S(C)(=O)=O)C2 [Example 18, 3-((5-methyl-7-(methylsulfonyl)-4-oxo-4,5,6,7,8,9-hexahydro-3H-pyrido [4′,3′:4,5]pyrrolo[2,3-d]pyridazin-3-yl)methyl)benzenesulfonamide]
EC50 (recombinant human PKM2): 394 nM
Emax (recombinant human PKM2): 58.7%
solubility kinetic at 1.5 h [1]: 18.3 µg/mL (≈ 40.5 µM)

C[C@H](N)c1cccc(Cn2ncc3c4c(n(C)c3c2=O)CN(S(C)(=O)=O)CC4)c1 [Example 26, (S)-3-(3-(1-aminoethyl)benzyl)-5-methyl-7-(methylsulfonyl)-3,5,6,7,8,9-hexahydro-4H-pyrido[4′,3′:4,5]pyrrolo[2,3-d]pyridazin-4-one]
EC50 (recombinant human PKM2): 372 nM
Emax (recombinant human PKM2): 81.1%
solubility kinetic at 1.5 h [1]: > 83 µg/mL

Cn1c2cc([S+](C)[O-])sc2c2cnn(Cc3cccc(N)c3)c(=O)c21 (centres unmarked) [TEPP-46, reference compound]
Emax (recombinant human PKM2): 113%
solubility kinetic at 1.5 h [1]: 0.15 µg/mL (≈ 0.403 µM)

Cn1c2c(c3cnn(Cc4cccc(C(C)(C)O)c4)c(=O)c31)CCN(S(C)(=O)=O)C2 [Example 33, 3-(3-(2-hydroxypropan-2-yl)benzyl)-5-methyl-7-(methylsulfonyl)-3,5,6,7,8,9-hexahydro-4H-pyrido[4′,3′:4,5]pyrrolo[2,3-d]pyridazin-4-one]
Emax (recombinant human PKM2): 96.5%
solubility kinetic at 1.5 h [1]: 19.8 µg/mL (≈ 46 µM)

COc1ccc(S(=O)(=O)N2CCc3c(n(C)c4c(=O)n(Cc5ccsc5C(N)=O)ncc34)C2)cc1 [Example 22, 3-((7-((4-methoxyphenyl)sulfonyl)-5-methyl-4-oxo-4,5,6,7,8,9-hexahydro-3H-pyrido[4′,3′:4,5]pyrrolo[2,3-d]pyridazin-3-yl)methyl)thiophene-2-carboxamide]
EC50 (recombinant human PKM2): 385 nM
Emax (recombinant human PKM2): 76.8%
solubility kinetic at 1.5 h [1]: 2.53 µg/mL (≈ 4.93 µM)

COCCS(=O)(=O)N1CCc2c(n(C)c3c(=O)n(Cc4ccc(OC)nc4)ncc23)C1 [Example 27, 7-((2-methoxyethyl)sulfonyl)-3-((6-methoxypyridin-3-yl)methyl)-5-methyl-3,5,6,7,8,9-hexahydro-4H-pyrido[4′,3′:4,5]pyrrolo[2,3-d]pyridazin-4-one]
EC50 (recombinant human PKM2): 919 nM
Emax (recombinant human PKM2): 78%

Cn1c2c(c3cnn(Cc4cccc(S(C)(=O)=O)c4)c(=O)c31)CCN(S(C)(=O)=O)C2 [Example 31, 5-methyl-7-(methylsulfonyl)-3-(3-(methylsulfonyl)benzyl)-3,5,6,7,8,9-hexahydro-4H-pyrido[4′,3′:4,5]pyrrolo[2,3-d]pyridazin-4-one]
EC50 (recombinant human PKM2): 423 nM
Emax (recombinant human PKM2): 75.3%
solubility kinetic at 1.5 h [1]: 18.8 µg/mL (≈ 41.8 µM)

Cn1c2c(c3cnn(Cc4ccc5c(c4)CC(C)(C)O5)c(=O)c31)CCN(S(C)(=O)=O)C2 [Example 24, 3-((2,2-dimethyl-2,3-dihydrobenzofuran-5-yl)methyl)-5-methyl-7-(methylsulfonyl)-3,5,6,7,8,9-hexahydro-4H-pyrido[4′,3′:4,5]pyrrolo[2,3-d]pyridazin-4-one]
EC50 (recombinant human PKM2): 188 nM
Emax (recombinant human PKM2): 90.9%

Cn1c2c(c3cnn(Cc4ccsc4CO)c(=O)c31)CCN(S(C)(=O)=O)C2 [Example 13, 3-((2-(hydroxymethyl)thiophen-3-yl)methyl)-5-methyl-7-(methylsulfonyl)-3,5,6,7,8,9-hexahydro-4H-pyrido[4′,3′:4,5]pyrrolo[2,3-d]pyridazin-4-one]
EC50 (recombinant human PKM2): 702 nM
Emax (recombinant human PKM2): 88.5%
solubility kinetic at 1.5 h [1]: 38 µg/mL (≈ 92.9 µM)

Cn1c2c(c3cnn(Cc4coc5ccccc45)c(=O)c31)CCN(S(C)(=O)=O)C2 [Example 16, 3-(benzofuran-3-ylmethyl)-5-methyl-7-(methylsulfonyl)-3,5,6,7,8,9-hexahydro-4H-pyrido[4′,3′:4,5]pyrrolo[2,3-d]pyridazin-4-one]
EC50 (recombinant human PKM2): 129 nM
Emax (recombinant human PKM2): 76.6%
solubility kinetic at 1.5 h [1]: 7.58 µg/mL (≈ 18.4 µM)

Source: patent publication US20240409542A1, “NOVEL COMPOUNDS” (Sitryx Therapeutics Limited, priority 2021, published 2024)
